Results on 25 compounds are retold here after US6627630B1, “Condensed pyridazine derivatives, their production and use” (Takeda Chemical Industries, Ltd., priority 1998, dated 2003).

Counter-ions that a name gives are not always drawn.

Usually melting point stands for the temperature, or range, at which the solid turns liquid.

Regarding `c1ccc(C(OC2CCN(CCCOc3ccc4ncnn4n3)CC2)c2ccccc2)cc1` (as salt: fumarate) [Example 2A, 6-[3-[4-(Diphenylmethoxy)piperidino]propoxy][1,2,4]triazolo[1,5-b]pyridazine Fumarate], the melting point lay within 157 to 159 °C. Then `Cc1cc2ncnn2nc1OCCCCCCN1CCN(C(c2ccccc2)c2ccccc2)CC1` (as salt: hydrochloride) [Example 51A, 6-[6-[4-(Diphenylmethyl)-1-piperazinyl]hexyloxy]-7-methyl[1,2,4]triazolo[1,5-b]pyridazine Dihydrochloride], with 170 to 172 °C. Then `CC(C)c1cc2ncnn2nc1SCCOCCN1CCN(C(c2ccccc2)c2ccccc2)CC1` (as salt: hydrochloride) [Example 59A, 6-[2-[2-[4-(Diphenylmethyl)-1-piperazinyl]ethoxy]ethylthio]-7-isopropyl[1,2,4]triazolo[1,5-b]pyridazine Dihydrochloride], with 143 to 145 °C; and `CC(C)(C)c1cc2ncnn2nc1OCCOCCN1CCN(C(c2ccccc2)c2ccccc2)CC1` (as salt: hydrochloride) [Example 62A, 7-t-Butyl-6-[2-[2-[4-(Diphenylmethyl)-1-piperazinyl]ethoxy]ethoxy][1,2,4]triazolo[1,5-b]pyridazine Dihydrochloride], with 150 to 152 °C; and `CC(C)(C(=O)O)c1cn2nc(NCCCN3CCC(OC(c4ccccc4)c4ccccc4)CC3)ccc2n1.O.O` (hydrate or solvate) [Example 135A, 2-[6-[3-[4-(Diphenylmethoxy)piperidino]propylamino]imidazo[1,2-b]pyridazin-2-yl)-2-methylpropionic Acid Dihydrate], with 203 to 205 °C. For `c1ccc(C(c2ccccc2)N2CCN(CCCNc3ccc4ncnn4n3)CC2)cc1` [Example 5A, 6-[3-[4-(Diphenylmethyl)-1-piperazinyl]propylamino][1,2,4]triazolo[1,5-b]pyridazine], the melting point lay in the range of 139 to 140 °C. Then `c1ccc(C(OC2CCN(CCCNc3ccc4ncnn4n3)CC2)c2ccccc2)cc1` [Example 6A, 6-[3-[4-(Diphenylmethoxy)piperidino]propylamino][1,2,4]triazolo[1,5-b]pyridazine], with 136 to 138 °C; and `CC(C)c1cc2ncnn2nc1SCCCN1CCN(C(c2ccccc2)c2ccccc2)CC1` [Example 9A, 6-[3-[4-(Diphenylmethyl)-1-piperazinyl]propylthio]-7-isopropyl[1,2,4]triazolo[1,5-b]pyridazine], with 137 to 139 °C. `c1ccc(C(OC2CCN(c3ccc4ncnn4n3)CC2)c2ccccc2)cc1` [Example 11A, 6-[4-(Diphenylmethoxy)piperidino][1,2,4]triazolo[1,5-b]pyridazine] yielded a melting point of 137 to 139 °C. Then `c1ccc(C(OC2CCN(CCCCNc3ccc4ncnn4n3)CC2)c2ccccc2)cc1` [Example 12A, 6-[4-[4-(Diphenylmethoxy)piperidino]butylamino][1,2,4]triazolo[1,5-b]pyridazine], with 102 to 104 °C; and `c1ccc(C(OC2CCN(CCNc3ccc4ncnn4n3)CC2)c2ccccc2)cc1` [Example 13A, 6-[2-[4-(Diphenylmethoxy)piperidino]ethylamino][1,2,4]triazolo[1,5-b]pyridazine], with 152 to 154 °C; and `CC(C)(C)c1cc2ncnn2nc1OCCN1CCC(OC(c2ccccc2)c2ccccc2)CC1` [Example 15A, 7-t-Butyl-6-[2-[4-(Diphenylmethoxy)piperidino]ethoxy][1,2,4]triazolo[1,5-b]pyridazine], with 133 to 135 °C. Then `OC(COc1ccc2ncnn2n1)CN1CCC(OC(c2ccccc2)c2ccccc2)CC1` (stereo not shown) [Example 16A, 1-[4-(Diphenylmethoxy)piperidino]-3-([1,2,4]triazolo[1,5-b]pyridazin-6-yloxy)-2-propanol], with 133 to 135 °C; and `O=C(CCN1CCN(C(c2ccccc2)c2ccccc2)CC1)Nc1ccc2ncnn2n1` [Example 19A, 3-[4-(Diphenylmethyl)-1-piperazinyl]-N-([1,2,4]triazolo[1,5-b]pyridazin-6-yl)propionamide], with 176 to 177 °C. Then `Cc1nc2ccc(NCCCN3CCC(OC(c4ccccc4)c4ccccc4)CC3)nn2n1` [Example 20A, 6-[3-[4-(Diphenylmethoxy)piperidino]propylamino]-2-methyl[1,2,4]triazolo[1,5-b]pyridazine], with 119 to 120 °C; and `Cc1nc2ccc(OCCCN3CCC(OC(c4ccccc4)c4ccccc4)CC3)nn2n1` [Example 21A, 6-[3-[4-(Diphenylmethoxy)piperidino]propoxy]-2-methyl[1,2,4]triazolo[1,5-b]pyridazine], with 134 to 136 °C; and `O=C(CN1CCC(OC(c2ccccc2)c2ccccc2)CC1)Nc1ccc2ncnn2n1` [Example 23A, 2-[4-(Diphenylmethoxy)piperidino]-N-([1,2,4]triazolo[1,5-b]pyridazin-6-yl)acetamide], with 158 to 160 °C. Compound `O=C(CN1CCN(C(c2ccccc2)c2ccccc2)CC1)Nc1ccc2ncnn2n1` [Example 24A, 2-[4-(Diphenylmethyl)-1-piperazinyl]-N-([1,2,4]triazolo[1,5-b]pyridazin-6-yl)acetamide] registered a melting point of 203 to 204 °C. Turning to `O=C(OCCOc1ccc2ncnn2n1)N1CCC(OC(c2ccccc2)c2ccccc2)CC1` [Example 25A, 6-[2-[4-(Diphenylmethoxy)piperidinocarbonyloxy]ethoxy][1,2,4]triazolo[1,5-b]pyridazine], the melting point was in the range of 75 to 76 °C.

Turning to `O=C(OCCOc1ccc2ncnn2n1)N1CCN(C(c2ccccc2)c2ccccc2)CC1` [Example 26A, 6-[2-[4-(Diphenylmethyl)-1-piperazinyl-carbonyloxy]ethoxy][1,2,4]triazolo[1,5-b]pyridazine], the melting point lay in the range of 157 to 159 °C.

`O=C(OCCCOc1ccc2ncnn2n1)C1CC(OC(c2ccccc2)c2ccccc2)CCN1` (stereo not shown) [Example 27A, 6-[3-[4-(Diphenylmethoxy)piperidino-carbonyloxy]propoxy][1,2,4]triazolo[1,5-b]pyridazine] gave a melting point of 119 to 120 °C. Regarding `c1ccc(-c2nc3ccc(NCCCN4CCC(OC(c5ccccc5)c5ccccc5)CC4)nn3n2)cc1` [Example 32A, 6-[3-[4-(Diphenylmethoxy)piperidino]propylamino]-2-phenyl[1,2,4]triazolo[1,5-b]pyridazine], the melting point fell in the range of 170 to 172 °C.

On to `COC(=O)c1nc2ccc(NCCCN3CCC(OC(c4ccccc4)c4ccccc4)CC3)nn2n1` [Example 36A, Methyl 6-[3-[4-(Diphenylmethoxy)piperidino]propylamino][1,2,4]triazolo[1,5-b]pyridazine-2-carboxylate], for which the melting point was in the range of 93 to 96 °C.

`c1ccc(C(c2ccccc2)N2CCN(CCCCCCNc3ccc4ncnn4n3)CC2)cc1` [Example 37A, 6-[6-[4-(Diphenylmethyl)-1-piperazinyl]hexylamino][1,2,4]triazolo[1,5-b]pyridazine] came in with a melting point of 130 to 132 °C. Then `COc1cn2nc(OCCCN3CCC(OC(c4ccccc4)c4ccccc4)CC3)ccc2n1` [Example 41A, 6-[3-[4-(Diphenylmethoxy)piperidino]propoxy]-2-methoxyimidazo[1,2-b]pyridazine], with 133 to 135 °C.
